The structures appear in SMILES notation.

For orientation: IC50 means the concentration that inhibits the measured activity by half.

Holding throughout (format): functional, cell-based
One assay has as its system HCT-116. Nature of the assay: Antiproliferative activity against human HCT-116 cells assessed as inhibition of cell growth incubated for 48 hrs by MTT assay. To be noted: HCT-116, 48 h. In general terms: Formazan colour is commonly taken as a measure of viable cells.
The subject of the next assay is MDA-MB-231. The assay is described as follows: Antiproliferative activity against human MDA-MB-231 cells assessed as inhibition of cell growth incubated for 48 hrs by MTT assay. The following applies: MDA-MB-231, 48 h.
The next assay concerns A549. Nature of the assay: Antiproliferative activity against human A549 cells assessed as inhibition of cell growth incubated for 48 hrs by MTT assay. To be noted: A549, 48 h.
Another assay concerns U2OS. Nature of the assay: Antiproliferative activity against human U2OS cells assessed as inhibition of cell growth incubated for 48 hrs by MTT assay.

Turning to `CC1=C(O)C(=O)C=C2C1=CC=C1[C@@]2(C)CC[C@@]2(C)[C@@H]3C[C@](C)(C(=O)OCCCCCn4ccnc4[N+](=O)[O-])CC[C@]3(C)CC[C@]12C`, the IC50 in the assay on HCT-116 came to 600 nM; with MDA-MB-231, 980 nM; with A549, 710 nM; in the assay with U2OS, 680 nM.

Take `CC1=C(O)C(=O)C=C2C1=CC=C1[C@@]2(C)CC[C@@]2(C)[C@@H]3C[C@](C)(C(=O)OCCCCCn4cc([N+](=O)[O-])nc4Cl)CC[C@]3(C)CC[C@]12C`: the IC50 with HCT-116 amounted to 780 nM; in the assay with MDA-MB-231, 930 nM; in the assay with A549, 750 nM; in the assay on U2OS, 600 nM.

For `CC1=C(O)C(=O)C=C2C1=CC=C1[C@@]2(C)CC[C@@]2(C)[C@@H]3C[C@](C)(C(=O)OC/C=C/Cn4cnc([N+](=O)[O-])c4)CC[C@]3(C)CC[C@]12C`, the IC50 was 640 nM in the assay with HCT-116, 1030 nM with MDA-MB-231, 710 nM with A549 and 710 nM with U2OS.

With `CC1=C(O)C(=O)C=C2C1=CC=C1[C@@]2(C)CC[C@@]2(C)[C@@H]3C[C@](C)(C(=O)OCCCCn4cc([N+](=O)[O-])nc4Br)CC[C@]3(C)CC[C@]12C`, the 50% inhibitory concentration (IC50) with HCT-116 was found to be 1850 nM; with MDA-MB-231, 1220 nM; in the assay with A549, 930 nM; with U2OS it was 680 nM.

With `CC1=C(O)C(=O)C=C2C1=CC=C1[C@@]2(C)CC[C@@]2(C)[C@@H]3C[C@](C)(C(=O)OCCCCCn4cnc(C#N)c4C#N)CC[C@]3(C)CC[C@]12C`, the IC50 in the assay on HCT-116 turned out to be 790 nM; in the assay with MDA-MB-231 it was 1570 nM; with A549, 1450 nM; in the assay on U2OS, 1470 nM.

In the case of `CC1=C(O)C(=O)C=C2C1=CC=C1[C@@]2(C)CC[C@@]2(C)[C@@H]3C[C@](C)(C(=O)OCCCCCCn4ccnc4[N+](=O)[O-])CC[C@]3(C)CC[C@]12C`, the IC50 amounted to 640 nM in the assay on HCT-116, 1210 nM in the assay on MDA-MB-231, 730 nM in the assay on A549 and 830 nM with U2OS.

As for `COC(=O)c1cn(CCCCCOC(=O)[C@]2(C)CC[C@]3(C)CC[C@]4(C)C5=CC=C6C(=CC(=O)C(O)=C6C)[C@]5(C)CC[C@@]4(C)[C@@H]3C2)cn1`, the IC50 with HCT-116 came to 670 nM; in the assay with MDA-MB-231, 1550 nM; with A549, 780 nM; with U2OS, 880 nM.

`CC1=C(O)C(=O)C=C2C1=CC=C1[C@@]2(C)CC[C@@]2(C)[C@@H]3C[C@](C)(C(=O)OCCCCn4cnc([N+](=O)[O-])c4)CC[C@]3(C)CC[C@]12C`: the IC50 in the assay on HCT-116 is 700 nM; with MDA-MB-231 it was 890 nM; in the assay on A549, 770 nM; in the assay with U2OS, 890 nM.

For `COC(=O)[C@]12CCC(C)(C)C[C@H]1[C@H]1C(=O)C=C3[C@@]4(C)C=C(C#N)C(=O)C(C)(C)[C@@H]4CC[C@@]3(C)[C@]1(C)CC2` [BARDOXOLONE METHYL], the IC50 in the assay with HCT-116 is 840 nM; with MDA-MB-231 it was 560 nM; with A549 it was 630 nM; with U2OS it was 740 nM.

Take `CC1=C(O)C(=O)C=C2C1=CC=C1[C@@]2(C)CC[C@@]2(C)[C@@H]3C[C@](C)(C(=O)OC/C=C/Cn4cc([N+](=O)[O-])nc4Cl)CC[C@]3(C)CC[C@]12C`: the IC50 in the assay on HCT-116 is 700 nM; with MDA-MB-231, 980 nM; in the assay on A549 it was 810 nM; in the assay with U2OS, 610 nM.

Consider `COC(=O)c1cn(CCCCCCOC(=O)[C@]2(C)CC[C@]3(C)CC[C@]4(C)C5=CC=C6C(=CC(=O)C(O)=C6C)[C@]5(C)CC[C@@]4(C)[C@@H]3C2)cn1`, for which the 50% inhibitory concentration (IC50) in the assay on HCT-116 is 1340 nM; in the assay on MDA-MB-231, 1920 nM; in the assay on A549, 1090 nM; in the assay with U2OS, 1480 nM.

As for `CC1=C(O)C(=O)C=C2C1=CC=C1[C@@]2(C)CC[C@@]2(C)[C@@H]3C[C@](C)(C(=O)OCCCn4ccnc4)CC[C@]3(C)CC[C@]12C`, the IC50 with HCT-116 amounted to 1090 nM; in the assay with MDA-MB-231, 1550 nM; with A549 it was 1570 nM; in the assay on U2OS it was 1650 nM.

As for `CC1=C(O)C(=O)C=C2C1=CC=C1[C@@]2(C)CC[C@@]2(C)[C@@H]3C[C@](C)(C(=O)OCCCCCn4cc([N+](=O)[O-])nc4Br)CC[C@]3(C)CC[C@]12C`, the IC50 in the assay on HCT-116 was 1100 nM; with MDA-MB-231, 980 nM; in the assay with A549, 810 nM; with U2OS, 670 nM.

For `CC1=C(O)C(=O)C=C2C1=CC=C1[C@@]2(C)CC[C@@]2(C)[C@@H]3C[C@](C)(C(=O)OCCCCCn4cnc([N+](=O)[O-])c4)CC[C@]3(C)CC[C@]12C`, the IC50 is 610 nM in the assay on HCT-116, 600 nM with MDA-MB-231, 710 nM with A549 and 600 nM with U2OS.

Turning to `COC(=O)c1cn(CCCOC(=O)[C@]2(C)CC[C@]3(C)CC[C@]4(C)C5=CC=C6C(=CC(=O)C(O)=C6C)[C@]5(C)CC[C@@]4(C)[C@@H]3C2)cn1`, the IC50 in the assay on HCT-116 is 690 nM; in the assay on MDA-MB-231 it was 1650 nM; in the assay with A549 it was 740 nM; in the assay on U2OS, 1350 nM.

`CC1=C(O)C(=O)C=C2C1=CC=C1[C@@]2(C)CC[C@@]2(C)[C@@H]3C[C@](C)(C(=O)OCCCn4ccnc4[N+](=O)[O-])CC[C@]3(C)CC[C@]12C`: the IC50 in the assay on HCT-116 stood at 1050 nM; with MDA-MB-231, 900 nM; with A549 it was 750 nM; in the assay with U2OS, 800 nM.

On to `CC1=C(O)C(=O)C=C2C1=CC=C1[C@@]2(C)CC[C@@]2(C)[C@@H]3C[C@](C)(C(=O)OCCCCn4cc([N+](=O)[O-])nc4Cl)CC[C@]3(C)CC[C@]12C`, for which the IC50 was determined as 720 nM with HCT-116, 1020 nM in the assay on MDA-MB-231, 790 nM with A549 and 620 nM with U2OS.

Consider `CC1=C(O)C(=O)C=C2C1=CC=C1[C@@]2(C)CC[C@@]2(C)[C@@H]3C[C@](C)(C(=O)OCCCCn4ccnc4[N+](=O)[O-])CC[C@]3(C)CC[C@]12C`, for which the concentration for half-maximal inhibition (IC50) in the assay on HCT-116 came out at 1550 nM; with MDA-MB-231, 1020 nM; in the assay on A549 it was 1060 nM; in the assay with U2OS, 910 nM.

For the molecule `CC1=C(O)C(=O)C=C2C1=CC=C1[C@@]2(C)CC[C@@]2(C)[C@@H]3C[C@](C)(C(=O)OCCCCCCn4cc([N+](=O)[O-])nc4Br)CC[C@]3(C)CC[C@]12C`, the IC50 with HCT-116 was found to be 1930 nM; with MDA-MB-231, 1050 nM; with A549, 1320 nM; with U2OS, 1460 nM.

Consider `CC1=C(O)C(=O)C=C2C1=CC=C1[C@@]2(C)CC[C@@]2(C)[C@@H]3C[C@](C)(C(=O)OCCCCCCn4cnc(C#N)c4C#N)CC[C@]3(C)CC[C@]12C`, for which the IC50 turned out to be 1160 nM in the assay on HCT-116, 1660 nM in the assay with MDA-MB-231, 1080 nM in the assay on A549 and 1730 nM in the assay with U2OS.

Turning to `CC1=C(O)C(=O)C=C2C1=CC=C1[C@@]2(C)CC[C@@]2(C)[C@@H]3C[C@](C)(C(=O)OCCCCCCn4cc([N+](=O)[O-])nc4Cl)CC[C@]3(C)CC[C@]12C`, the IC50 came to 1120 nM in the assay on HCT-116, 990 nM in the assay on MDA-MB-231, 900 nM in the assay with A549 and 910 nM in the assay with U2OS.

In the case of `CC1=C(O)C(=O)C=C2C1=CC=C1[C@@]2(C)CC[C@@]2(C)[C@@H]3C[C@](C)(C(=O)OCCCn4cnc(C#N)c4C#N)CC[C@]3(C)CC[C@]12C`, the IC50 amounted to 720 nM in the assay with HCT-116, 1450 nM in the assay on MDA-MB-231, 790 nM in the assay with A549 and 1450 nM with U2OS.

Regarding `CC1=C(O)C(=O)C=C2C1=CC=C1[C@@]2(C)CC[C@@]2(C)[C@@H]3C[C@](C)(C(=O)OCCCn4cnc(C)c4)CC[C@]3(C)CC[C@]12C`, the IC50 with HCT-116 amounted to 1290 nM; with MDA-MB-231 it was 1550 nM; in the assay on A549 it was 1970 nM; with U2OS, 1450 nM.

For the molecule `COC(=O)c1cn(CCCCOC(=O)[C@]2(C)CC[C@]3(C)CC[C@]4(C)C5=CC=C6C(=CC(=O)C(O)=C6C)[C@]5(C)CC[C@@]4(C)[C@@H]3C2)cn1`, the IC50 amounted to 950 nM in the assay with HCT-116, 1870 nM in the assay on MDA-MB-231, 1040 nM in the assay on A549 and 1520 nM in the assay on U2OS.

Turning to `CC1=C(O)C(=O)C=C2C1=CC=C1[C@@]2(C)CC[C@@]2(C)[C@@H]3C[C@](C)(C(=O)OCCCn4cnc([N+](=O)[O-])c4)CC[C@]3(C)CC[C@]12C`, the IC50 came out at 630 nM in the assay with HCT-116, 690 nM with MDA-MB-231, 670 nM in the assay on A549 and 700 nM with U2OS.

With `CC1=C(O)C(=O)C=C2C1=CC=C1[C@@]2(C)CC[C@@]2(C)[C@@H]3C[C@](C)(C(=O)OCCCCn4cnc(C#N)c4C#N)CC[C@]3(C)CC[C@]12C`, the IC50 with HCT-116 was 1530 nM; in the assay with MDA-MB-231 it was 1670 nM; in the assay with A549, 1660 nM; in the assay with U2OS, 1580 nM.

On to `CC1=C(O)C(=O)C=C2C1=CC=C1[C@@]2(C)CC[C@@]2(C)[C@@H]3C[C@](C)(C(=O)OCCCn4cc([N+](=O)[O-])nc4Br)CC[C@]3(C)CC[C@]12C`, for which the IC50 stood at 660 nM with HCT-116, 1150 nM with MDA-MB-231, 800 nM with A549 and 600 nM with U2OS.

Regarding `CC1=C(O)C(=O)C=C2C1=CC=C1[C@@]2(C)CC[C@@]2(C)[C@@H]3C[C@](C)(C(=O)OCCCCCCn4cnc([N+](=O)[O-])c4)CC[C@]3(C)CC[C@]12C`, the IC50 in the assay with HCT-116 stood at 630 nM; in the assay with MDA-MB-231 it was 950 nM; with A549, 790 nM; with U2OS, 880 nM.

Source of the values: ChEMBL document CHEMBL5154774, “Discovery of Novel Celastrol-Imidazole Derivatives with Anticancer Activity In Vitro and In Vivo” (J Med Chem, 2022).
